Measured values taken from ChEMBL document CHEMBL6071165, “Design, synthesis and biological evaluation of plant-derived miliusol derivatives achieve TNBC profound regression in vivo” (Eur J Med Chem, 2024).
Active and inactive are the calls of the source. No cut-off for these calls is given here.

Columns and labels:
BT-549 [1] = experiment: Downregulation of c-Jun level in human BT-549 cells incubated for 24 hrs by Western blot analysis; type: functional, cell-based; conditions: dose 0.5-2 µM
MDA-MB-231 [2] = experiment: Antiproliferative activity against human MDA-MB-231 cells xenografted in female BALB/c mouse model assessed as fold change in cleavage of caspase-3 level at 5 mg/kg administered subcutaneously incubated for 24 hrs by Western blot analysis (reference value: 1.00%); type: functional; conditions: route sc
BT-549 [3] = experiment: Inhibition of glycolysis in human BT-549 cells assessed as decrease in GLUT4 protein level at 0.5 to 2 uM incubated for 24 hrs by Western blot analysis; type: functional, cell-based; conditions: dose 0.5-2 µM
[4] = Toxicity in female BALB/c mouse assessed as change in brain administered subcutaneously measured upto 16 days; type: tissue-based; conditions: in vivo, sc, 384 h, time < 16 day
BT-549 [5] = experiment: Antiproliferative activity against human BT-549 cells xenografted in female BALB/c mouse model assessed as fold change in upregulation of BAX protein level at 5 mg/kg administered subcutaneously incubated for 24 hrs by Western blot analysis (reference value: 1.00%); type: functional; conditions: route sc
[6] = (§1) Selectivity ratio of IC50 for antiproliferative activity against human MCF-10A cells assessed as inhibition of cell proliferation incubated for 48 hrs by MTT assay to IC50 for antiproliferative activity against human MDA-MB-231 cells assessed as inhibition of cell proliferation incubated for 48 hrs by MTT assay; type: cell-based; conditions: MCF-10A cells versus MDA-MB-231 cells, read-out: Ratio IC50
BT-549 [7] = experiment: Inhibition of cell migration in human BT-549 cells assessed as reduction in wound healing ability at 0 to 2 uM incubated for 48 hrs by Wound healing assay; type: functional, cell-based; conditions: dose 0-2 µM
Mitochondrial membrane = experiment: Disruption of mitochondrial potential loss in human BT-549 cells assessed as decrease in JC-1 aggregates at 1 uM incubated for 24 hrs by JC-1 staining based flow cytometric analysis (Rvb =98.7%); type: cell membranes; design: scale not given: the % may be the effect or the level left
BT-549 [8] = experiment: Induction of ER stress in human BT-549 cells assessed as activation of CHOP protein level incubated for 24 hrs by Western blot analysis; type: functional, cell-based; conditions: dose 0.5-2 µM
MDA-MB-231 [9] = experiment: Induction of ER stress in human MDA-MB-231 cells assessed as activation of Xbp-1s protein level incubated for 24 hrs by Western blot analysis; type: functional, cell-based; conditions: dose 0.5-2 µM
MDA-MB-231 [10] = experiment: Induction of apoptosis in human MDA-MB-231 cells assessed as viable cells at 0.5 uM incubated for 24 hrs by Annexin V-PI staining based flow cytometric analysis (reference value: 96.5%); type: functional; conditions: read-out: Activity
BT-549 [11] = experiment: Antiproliferative activity against human BT-549 cells xenografted in female BALB/c mouse model assessed as as fold change in cleavage of caspase-3 level at 10 mg/kg administered subcutaneously incubated for 24 hrs by Western blot analysis (reference value: 1.00%); type: functional; conditions: route sc
BT-549 [12] = experiment: Induction of apoptosis in human BT-549 cells assessed as viable cells at 2 uM incubated for 24 hrs by Annexin V-PI staining based flow cytometric analysis (reference value: 93.0%); type: functional; conditions: read-out: Activity
BT-549 [13] = experiment: Induction of apoptosis in human BT-549 cells assessed as necrotic cells at 2 uM incubated for 24 hrs by Annexin V-PI staining based flow cytometric analysis (reference value: 3.32%); type: functional
BT-549 [14] = experiment: Induction of apoptosis in human BT-549 cells assessed as early apoptotic cells at 0.5 uM incubated for 24 hrs by Annexin V-PI staining based flow cytometric analysis (reference value: 0.78%); type: functional
MDA-MB-231 [15] = experiment: Antimetastatic activity against human MDA-MB-231-Luc cells xenografted in female BALB/C mouse assessed as reduction in metastasis speed at 20 mg/kg administered subcutaneously and measured for 16 days; type: functional, organism-based; conditions: route sc, time 16.0 day
MDA-MB-231 [16] = experiment: Antiproliferative activity against human MDA-MB-231 cells xenografted in female BALB/c mouse model assessed as fold change in upregulation of BAX protein level at 20 mg/kg administered subcutaneously incubated for 24 hrs by Western blot analysis (reference value: 1.00%); type: functional; conditions: route sc
BT-549 [17] = experiment: Induction of ER stress in human BT-549 cells assessed as increase in calcium ion content at 2 uM incubated for 24 hrs by Fluo-3AM staining based flow cytometric analysis; type: functional, cell-based
MDA-MB-231 [18] = experiment: Induction of apoptosis in human MDA-MB-231 cells assessed as upregulation of Bax expression at 0.5 to 2 uM incubated for 24 hrs by Western blot analysis; type: functional, cell-based; conditions: dose 0.5-2 µM
MDA-MB-231 [19] = experiment: Inhibition of glycolysis in human MDA-MB-231 cells assessed as reduction in lactate production at 0.5 to 2 uM; type: functional, cell-based; conditions: dose 0.5-2 µM
BT-549 [20] = experiment: Induction of apoptosis in human BT-549 cells assessed as late apoptotic cells at 1 uM incubated for 24 hrs by Annexin V-PI staining based flow cytometric analysis (reference value: 2.95%); type: functional
MDA-MB-231 [21] = experiment: Induction of apoptosis in human MDA-MB-231 cells assessed as upregulation of cleavage of caspase-3 expression at 0.5 to 2 uM incubated for 24 hrs by Western blot analysis; type: functional, cell-based; conditions: dose 0.5-2 µM
MDA-MB-231 [22] = experiment: Induction of apoptosis in human MDA-MB-231 cells assessed as upregulation of cleavage of caspase-9 expression at 0.5 to 2 uM incubated for 24 hrs by Western blot analysis; type: functional, cell-based; conditions: dose 0.5-2 µM
MDA-MB-231 [23] = experiment: Inhibition of colony formation in human MDA-MB-231 cells incubated for 7 days by Crystal violet staining based analysis; type: functional, cell-based; conditions: dose 0.5-2 µM, time 7.0 day
MDA-MB-231 [24] = experiment: Induction of apoptosis in human MDA-MB-231 cells assessed as viable cells at 2 uM incubated for 24 hrs by Annexin V-PI staining based flow cytometric analysis (reference value: 96.5%); type: functional; conditions: read-out: Activity
[25] = as §1, with “24” for “48”, “BT-549” for “MDA-MB-231”; type: toxicity, cell-based; conditions: MCF-10A cells versus BT-549 cells, read-out: Ratio IC50
BT-549 [26] = experiment: Inhibition of tumor sphere formation in human BT-549 cells at 1 uM incubated for 24 hrs by microscopic analysis; type: functional, cell-based
BT-549 [27] = experiment: Antitumor activity against human BT-549 cells xenografted in female BALB/c mouse model assessed as reduction in tumor weight administered subcutaneously and measured every day; type: functional, cell-based; conditions: dose 5-20 mg/kg, route sc
[28] = Antiproliferative activity against human MCF-10A cells assessed as inhibition of cell proliferation incubated for 48 hrs by MTT assay; type: toxicity, cell-based
BT-549 [29] = experiment: Inhibition of cell migration in human BT-549 cells assessed as increase in E-cadherin level by incubated for 24 hrs by Western blot analysis; type: functional, cell-based; conditions: dose 0.5-2 µM
BT-549 [30] = experiment: Induction of ER stress in human BT-549 cells assessed as appearance of large number of vacuoles at 1 uM incubated for 24 hrs by TEM analysis; type: functional, cell-based
MDA-MB-231 [31] = experiment: Induction of apoptosis in human MDA-MB-231 cells assessed as upregulation of cleavage of PARP level at 0.5 to 2 uM incubated for 24 hrs by Western blot analysis; type: functional, cell-based; conditions: dose 0.5-2 µM
[32] = Toxicity in female BALB/c mouse xenografted with human BT-549 cells assessed as effect on body weight at 5 to 20 mg/kg, sc and measured daily; type: organism-based; conditions: in vivo, dose 5-20 mg/kg
[33] = Toxicity in female BALB/c mouse xenografted with human BT-549 cells assessed as effect on pathological changes in spleen at 5 to 20 mg/kg, sc by H and E staining based analysis; type: organism-based; conditions: in vivo, dose 5-20 mg/kg

Activity (Mitochondrial membrane): 43.2%
SMILES: CC(C)=CCC/C(C)=C/[C@H]1OC(=O)CC12C[C@H](OC(=O)Cc1ccc(NC(=O)/C=C/c3ccccc3)cc1)C=CC2=O (some centres undefined)
Activity (BT-549 [1]): Dose-Dependent Effect | fold change (FC) (MDA-MB-231 [2]): 1.11 | inhibition (BT-549 [3]): Active | Activity [4]: Non-Toxic | fold change (FC) (BT-549 [5]): 1.4 | selectivity ratio at 48 h [6]: 36.4 | inhibition (BT-549 [7]): Active | Activity (BT-549 [8]): Dose-Dependent Effect | Activity (MDA-MB-231 [9]): Active | viability at 0.5 µM (MDA-MB-231 [10]): 70.1% | fold change (FC) (BT-549 [11]): 1.72 | viability at 2 µM (BT-549 [12]): 34.8% | Activity (BT-549 [13]): 4.02% | Activity (BT-549 [14]): 0.91% | Activity (MDA-MB-231 [15]): Active | fold change (FC) (MDA-MB-231 [16]): 1.82 | Activity (BT-549 [17]): Active | Activity (MDA-MB-231 [18]): Active | inhibition (MDA-MB-231 [19]): Active | Activity (BT-549 [20]): 24.9% | Activity (MDA-MB-231 [21]): Active | Activity (MDA-MB-231 [22]): Active | inhibition (MDA-MB-231 [23]): Dose-Dependent Effect | viability at 2 µM (MDA-MB-231 [24]): 48.8% | selectivity ratio at 24 h [25]: 57.7 | inhibition (BT-549 [26]): Active | Activity (BT-549 [27]): Dose-Dependent Effect | IC50 at 48 h [28]: 16 µM | inhibition (BT-549 [29]): Dose-Dependent Effect | Activity (BT-549 [30]): Active | Activity (MDA-MB-231 [31]): Active | Activity [32]: Non-Toxic | Activity [33]: Non-Toxic
